Reference: the supplement of paper PMC13380429

How the values were obtained:
Settings in all cases: 72 h
Calu-3 [1] = experiment: relative viability EC50 (midpoint between 100% and the lowest measured viability); higher = less toxic
U2OS [2] = experiment: as above
Vero E6 [3] = experiment: as above
Caco-2 [4] = experiment: as above
HepG2 [5] = experiment: as above
Calu-3 [6] = experiment: cell viability relative to DMSO; higher = less toxic
U2OS [7] = experiment: as above
Vero E6 [8] = experiment: as above
Caco-2 [9] = experiment: as above
HepG2 [10] = experiment: as above
Calu-3 [11] = experiment: drug sensitivity score (DSS) for viability; higher = more toxic; extreme values may be limits of the assay
U2OS [12] = experiment: as above
Vero E6 [13] = experiment: as above
Caco-2 [14] = experiment: as above
HepG2 [15] = experiment: as above

Row | SMILES | relative viability EC50 (Calu-3 [1]) [µM] | relative viability EC50 (U2OS [2]) [µM] | relative viability EC50 (Vero E6 [3]) [µM] | relative viability EC50 (Caco-2 [4]) [µM] | relative viability EC50 (HepG2 [5]) [µM] | cell viability (Calu-3 [6]; 1 nM) [%] | cell viability (Calu-3 [6]; 10 nM) [%] | cell viability (Calu-3 [6]; 100 nM) [%] | cell viability (Calu-3 [6]; 1000 nM) [%] | cell viability (Calu-3 [6]; 10000 nM) [%] | cell viability (U2OS [7]; 1 nM) [%] | cell viability (U2OS [7]; 10 nM) [%] | cell viability (U2OS [7]; 100 nM) [%] | cell viability (U2OS [7]; 1000 nM) [%] | cell viability (U2OS [7]; 10000 nM) [%] | cell viability (Vero E6 [8]; 1 nM) [%] | cell viability (Vero E6 [8]; 10 nM) [%] | cell viability (Vero E6 [8]; 100 nM) [%] | cell viability (Vero E6 [8]; 1000 nM) [%] | cell viability (Vero E6 [8]; 10000 nM) [%] | cell viability (Caco-2 [9]; 1 nM) [%] | cell viability (Caco-2 [9]; 10 nM) [%] | cell viability (Caco-2 [9]; 100 nM) [%] | cell viability (Caco-2 [9]; 1000 nM) [%] | cell viability (Caco-2 [9]; 10000 nM) [%] | cell viability (HepG2 [10]; 1 nM) [%] | cell viability (HepG2 [10]; 10 nM) [%] | cell viability (HepG2 [10]; 100 nM) [%] | cell viability (HepG2 [10]; 1000 nM) [%] | cell viability (HepG2 [10]; 10000 nM) [%] | drug sensitivity score (Calu-3 [11]) | drug sensitivity score (U2OS [12]) | drug sensitivity score (Vero E6 [13]) | drug sensitivity score (Caco-2 [14]) | drug sensitivity score (HepG2 [15])
1 | O=C1S/C(=C\c2ccc(OCc3cccc(B(O)O)c3)cc2)C(=O)N1Cc1ccc(F)cc1 [HA-130] | > 10 | > 10 | > 10 | > 10 | > 10 | 95.2 | 110 | 99.6 | 105 | 93.7 | 95.6 | 97.5 | 94.7 | 98.7 | 90.6 | 95.5 | 97.2 | 103 | 91.9 | 93.4 | 93.4 | 96 | 97 | 97.6 | 92.8 | 102 | 98.7 | 94.8 | 101 | 103 | 0 | 0 | 0 | 0 | 0
2 | CCc1ccc(OCc2ccccc2C(=O)Nc2ccc3nc(C)cc(N)c3c2)cc1 [JTC-801] | 3.18 | 3 | 2.69 | 2.49 | 2.25 | 97.7 | 102 | 100 | 100 | 0.2 | 96 | 99.2 | 96.6 | 97.8 | -0.1 | 101 | 99.7 | 102 | 94.1 | -0.1 | 97.8 | 94.5 | 90.4 | 91.9 | 0.6 | 114 | 95.6 | 102 | 89 | -0.1 | 5.6 | 5.9 | 6.4 | 6.8 | 7.4
3 | O=C(OC(C(F)(F)F)C(F)(F)F)N1CCC(C(O)(c2ccc3c(c2)OCO3)c2ccc3c(c2)OCO3)CC1 [KML29] | > 10 | > 10 | > 10 | > 10 | > 10 | 109 | 105 | 98 | 108 | 92.6 | 103 | 99.8 | 101 | 95.5 | 95.5 | 94 | 96.2 | 97.8 | 98.3 | 91.7 | 94.6 | 99.6 | 117 | 97 | 106 | 96.7 | 96.1 | 94.1 | 106 | 98.8 | 0 | 0 | 0 | 0 | 0
4 | O=C(O)[C@@H]1C[C@@H](O)CN1 [L-hydroxyproline] | > 10 | > 10 | > 10 | > 10 | > 10 | 95 | 94.4 | 93.5 | 96.9 | 106 | 95.9 | 102 | 100 | 95.2 | 102 | 104 | 114 | 99.5 | 105 | 94.4 | 80.5 | 92.4 | 100 | 96.1 | 95.8 | 101 | 112 | 99.7 | 108 | 90.8 | 0 | 0 | 0 | 0 | 0
5 | Cc1sc(C)c(C(=O)NC2(c3ccc(C(=O)O)cc3)CC2)c1Cc1ccc(C(F)(F)F)cc1 [MK-2894] | > 10 | > 10 | > 10 | > 10 | > 10 | 99.3 | 107 | 103 | 101 | 109 | 93.1 | 99.8 | 100 | 102 | 106 | 93.7 | 92.9 | 96.5 | 93.6 | 85.9 | 94.8 | 95.7 | 89 | 101 | 101 | 104 | 99.9 | 111 | 96.4 | 96.4 | 0 | 0 | 0 | 0 | 0
6 | COc1ccccc1C(=O)Nc1cccc(NC(=O)c2cccc(C)c2)c1 [ML365] | > 10 | > 10 | > 10 | > 10 | > 10 | 99 | 98.4 | 96.2 | 98.4 | 94.3 | 107 | 102 | 103 | 98.5 | 99 | 102 | 100 | 101 | 98.2 | 95 | 97.8 | 101 | 97.4 | 92.8 | 86 | 113 | 98.7 | 91.6 | 116 | 85.8 | 0 | 0 | 0 | 0.3 | 0
7 | Cc1cc(C)c(NC(=O)C2CC3CCC2C3)c(C)c1 (stereo not given) [ML-213] | > 10 | > 10 | > 10 | > 10 | > 10 | 105 | 96.5 | 92 | 106 | 95.3 | 105 | 100 | 99.8 | 103 | 104 | 93.3 | 98.4 | 96.3 | 90.3 | 100 | 107 | 82.4 | 93.7 | 98.4 | 99.8 | 103 | 104 | 99.9 | 104 | 101 | 0 | 0 | 0 | 0 | 0
8 | S=C=Nc1cccc(NC(=S)NCCCCNC(=S)Nc2cccc(N=C=S)c2)c1 [MRS-2578] | > 10 | > 10 | > 10 | > 10 | > 10 | 90.7 | 93.6 | 109 | 90.2 | 107 | 95.9 | 95.8 | 99.5 | 97.2 | 104 | 98.3 | 98.8 | 94.2 | 99.5 | 98.7 | 100 | 91.2 | 99.7 | 98.4 | 101 | 107 | 104 | 110 | 97.7 | 103 | 0 | 0 | 0 | 0 | 0
9 | COC(=O)CN1CN(c2ccccc2)C2(CCN(Cc3cccc4ccccc34)CC2)C1=O [NNC-63-0532] | > 10 | > 10 | > 10 | > 10 | > 10 | 98.2 | 106 | 97.7 | 114 | 102 | 100 | 96.1 | 94.9 | 102 | 98.7 | 90.2 | 97.3 | 96.5 | 90.7 | 103 | 102 | 96.3 | 95 | 99.7 | 96.9 | 93.5 | 104 | 99.6 | 95 | 99.8 | 0 | 0 | 0 | 0 | 0
10 | C[C@]12CC[C@H]3[C@@H](CCC4=CC(=O)CC[C@@H]43)[C@@H]1CC[C@@H]2O [Nandrolone] | > 10 | > 10 | > 10 | > 10 | > 10 | 95.7 | 102 | 102 | 104 | 99.4 | 98.7 | 96.1 | 98.5 | 96.5 | 96.7 | 91.6 | 104 | 89.9 | 96.2 | 103 | 92 | 91.3 | 98.7 | 103 | 95 | 102 | 101 | 96.9 | 108 | 113 | 0 | 0 | 0 | 0 | 0
11 | CO/N=C1/C[C@@H](C(=O)NC[C@@H](O)c2ccccc2)N(C(=O)c2ccc(-c3ccccc3C)cc2)C1 [OT-R-antagonist-1] | > 10 | > 10 | > 10 | > 10 | > 10 | 96.2 | 106 | 106 | 110 | 99.4 | 96.9 | 99.8 | 94.5 | 99.1 | 100 | 97 | 90.8 | 95.2 | 84.8 | 103 | 89 | 99 | 99.1 | 86.6 | 98.3 | 102 | 97.6 | 99.4 | 97.7 | 98.5 | 0 | 0 | 0 | 0 | 0
12 | C[C@]12COC(=O)C[C@@H]1CC[C@@H]1[C@@H]2CC[C@@]2(C)[C@H]1CC[C@]2(C)O [Oxandrolone] | > 10 | > 10 | > 10 | > 10 | > 10 | 98.3 | 98.4 | 96.8 | 103 | 110 | 101 | 99.4 | 99.7 | 102 | 104 | 104 | 98 | 98.4 | 104 | 98.2 | 106 | 101 | 100 | 99.4 | 106 | 102 | 94.9 | 104 | 99.4 | 90.8 | 0 | 0 | 0 | 0 | 0
13 | O=C(/C=C/N1C[C@H]2C[C@@H]1CN2c1ccccn1)c1ccccc1O [PFI-3] | > 10 | > 10 | > 10 | > 10 | > 10 | 101 | 115 | 98.1 | 96.1 | 107 | 92.6 | 99.7 | 96.1 | 99.7 | 101 | 99.3 | 90.4 | 99.6 | 93.8 | 104 | 92 | 94.5 | 88.5 | 98.1 | 106 | 97.3 | 99.8 | 110 | 99.5 | 96.2 | 0 | 0 | 0 | 0 | 0
14 | Cc1ccc([N+](=O)[O-])cc1S(=O)(=O)N(C)/N=C/c1cnc2ccc(Br)cn12 [PIK-75] | 0.0668 | 0.109 | 0.139 | 0.0669 | 0.0317 | 102 | 103 | 52.6 | 35.6 | 46.7 | 98.6 | 96.6 | 53.8 | 4.2 | 0.8 | 105 | 101 | 69.7 | 0.7 | 5.3 | 98.8 | 90.3 | 57.9 | 28.4 | 33.3 | 97.9 | 84.7 | 26 | 11.1 | 10.6 | 17.4 | 23 | 22.3 | 18.3 | 26.8
